Columns and labels:
[1] = tested on: rats with acute gouty arthritis induced by MSU; experiment: Example 2: further investigation at reduced dose, sodium urate (MSU)-induced acute gouty arthritis in rats, joint swelling; type: in vivo, SD rats; parameters: key to Swelling degree 2 h after modelling / Swelling degree 4 h after modelling / Swelling degree 6 h after modelling: joint volume after modeling minus joint volume before modeling
Excerpt: Based on Example 1, the dosage of anemoside B4 was reduced, and the effect on alleviating the joint swelling of acute gouty arthritis caused by sodium urate in rats was further investigated. • 1. Experimental materials: same as item “1.” in example 1. • 2. Experimental method • 2.1 Preparation of sodium urate (MSU) crystals and suspension: same as item “2.1” in Example 1. • 2.2. Grouping, administration, and model establishment: • 2.2.1 Grouping: 50 rats were randomly divided into 5 groups according to their body weights, 10 rats for each group: • (1) model group; (2) colchicine group (0.15 mg/kg); (3) B4 subcutaneous injection group (2.5 mg/kg*2); (4) B4 intramuscular injection group (2.5 mg/kg*2); (5) B4 intravenous injection group (2.5 mg/kg*2). • 2.2.2 Administration: The model group was injected with the same volume of normal saline, and each test group (including B4 groups and colchicine group) was administered only on the day of model building. Among them, colchicine group was administered once, while each B4 group was successively administered two times with an interval of 4 h. • 2.2.3 Model establishment and measurement of joint swelling: the model was initially established 1 h after administrating in the drug groups, and the method was same as that in example 1. Before modeling and 2 h, 4 h, 6 h, 8 h, and 12 h after modeling, the volume of the right ankle joint was measured, and the swelling degree was calculated by “joint volume after modeling joint volume before modeling”. • 3.

[2] = tested on: rats with acute gouty arthritis induced by MSU; experiment: Example 1: effect of anemoside B4 on sodium urate (MSU)-induced acute gouty arthritis in rats, joint swelling; type: in vivo, SD rats; parameters: key to Swelling degree 2 h after modelling / Swelling degree 6 h after modelling / Swelling degree 8 h after modelling / Swelling degree 12 h after modelling / Swelling degree 24 h after modelling: swelling = joint volume after modeling − joint volume before modeling
Description: 2.1 Preparation of sodium urate (MSU) crystals and suspension: 5 ml of 1 mol/L NaOH solution and 800 mg sodium urate were added to 155 ml depyrogenated sterile water for injection and heated to boiling. Sodium urate was completely dissolved and then cooled down naturally under stirring. After that, 1 mol/L HCl was dropped to pH 7.0, then the solution became milky white, and was immediately centrifuged at 3000 r/min for 2 min. The crystals were collected, dried in an oven at 60° C., placed in an EP tube, and stored at 4° C. Prior to use, MSU crystals were autoclaved at 121° C. for 30 min, and dispersed in PBS to make the required concentration, i.e. to obtain a suspension of sodium urate (MSU). The film preparation of the suspension was performed, and the long fusiform crystals can be seen under the optical microscope.
2.2 Grouping, administration, and model establishment: 60 rats were randomly divided into 6 groups according to their body weights, 10 rats for each group: (1) model group; (2) colchicine group (0.3 mg/kg); (3) B4 subcutaneous injection group (5 mg/kg*2); (4) B4 intravenous injection group (5 mg/kg*2); (5) B4 intramuscular injection high-dose group (5 mg/kg*2); (6) B4 intramuscular injection low-dose group (2.5 mg/kg*2); normal group (5 rats). The normal group and the model group were injected with the same volume of normal saline, and each of B4 groups was given corresponding drugs by the corresponding route of administration for 3 days, twice a day, with an interval of 4 hours between two times.
Modeling method: on the day of modeling, the model was initially established 1 h after administrating in the drug groups. Among them: • (1) Model group: each rat was injected with 40 mg/mL MSU suspension to the back of the right ankle joint at a dose of 0.2 mL/rat; • (2) Colchicine group: the colchicine group was administered once on the day of modeling, and 1 h after administration, each rat was injected with 40 mg/mL MSU suspension on the dorsal side of the right ankle joint at a dose of 0.2 mL/mouse; • (3)-(6) B4 groups: 1 h after the last administration, each rat was injected with 40 mg/mL MSU suspension on the dorsal side of the right ankle joint at 0.2 mL/mouse, and 3 h after modeling, each test group was further administrated once.
2.3 Measurement of joint swelling: before modeling and 2 h, 4 h, 6 h, 8 h, 12 h, 24 h after modeling, the volume of the right ankle joint was measured, and the swelling degree was calculated by “joint volume after modeling-joint volume before modeling”.

[3] = B4 intramuscular injection group, 2.5mg/kg * twice
[4] = B4 intravenous injection group, 2.5mg/kg * twice
[5] = B4 subcutaneous injection group, 2.5 mg/kg * twice
[6] = B4 intramuscular high-dose group, 5 mg/kg * 2
[7] = B4 intramuscular low-dose group, 2.5 mg/kg * 2
[8] = B4 intravenous injection group, 5 mg/kg * 2
[9] = B4 subcutaneous injection group, 5 mg/kg * 2

## C=C(C)C1CCC2(C(=O)O[C@@H]3O[C@H](CO[C@@H]4O[C@H](CO)[C@@H](O[C@@H]5O[C@@H](C)[C@H](O)[C@@H](O)[C@H]5O)[C@H](O)[C@H]4O)[C@@H](O)[C@H](O)[C@H]3O)CC[C@]3(C)[C@H](CC[C@@H]4[C@@]5(C)CC[C@H](OC6OC[C@H](O)[C@H](O)[C@H]6O[C@@H]6O[C@@H](C)[C@H](O)[C@@H](O)[C@H]6O)[C@@](C)(CO)[C@@H]5CC[C@]43C)[C@@H]12 (stereo partly shown) [B4, anemoside B4]
[1]; B4 injection, Example 2
  alleviating the joint swelling of acute gouty arthritis (conclusion): significant effect
[1]; [3]
  Swelling degree 2 h after modelling: 0.099 ± 0.08
  Swelling degree 4 h after modelling: 0.130 ± 0.07
  Swelling degree 6 h after modelling: 0.090 ± 0.07
  Swelling degree 8 h after modelling: 0.134 ± 0.10^Δ
  Swelling degree 12 h after modelling: 0.097 ± 0.17^Δ
[1]; B4 intramuscular injection group, 8-12 h after modelling
  swelling degree of the joint compared with the model group: obviously reduced and significantly different
[1]; B4 intramuscular injection group, 12 h after modeling
  joint swelling degree, rank among groups: smallest in all groups
[1]; [4]
  Swelling degree 2 h after modelling: 0.113 ± 0.09
  Swelling degree 4 h after modelling: 0.099 ± 0.10
  Swelling degree 6 h after modelling: 0.108 ± 0.18
  Swelling degree 8 h after modelling: 0.113 ± 0.24^Δ
  Swelling degree 12 h after modelling: 0.124 ± 0.27^Δ
[1]; B4 intravenous injection group, 8-12 h after modelling
  swelling degree of the joint compared with the model group: obviously reduced and significantly different
[1]; [5]
  Swelling degree 4 h after modelling: 0.008 ± 0.11
  Swelling degree 6 h after modelling: 0.040 ± 0.09^Δ
  Swelling degree 8 h after modelling: 0.103 ± 0.18^Δ
  Swelling degree 12 h after modelling: 0.103 ± 0.16^Δ
[1]; B4 subcutaneous injection group, 2.5 mg/kg * twice, day of modelling only
  Swelling degree 2 h after modelling: 0.067 ± 0.10
[1]; B4 subcutaneous injection group, 2-8 h after modeling
  joint swelling degree, rank among groups: smallest in all groups
[1]; B4 subcutaneous injection group, 6-12 h after modelling
  swelling degree of the joint compared with the model group: obviously reduced and significantly different
[1]; administration routes and dosages of Example 2
  effect on reducing the joint swelling of acute gouty arthritis caused by sodium urate, compared with colchicine: equivalent to that of colchicine
[2]; [6]
  Swelling degree 2 h after modelling: 0.15 ± 0.10
  Swelling degree 4 h after modelling: 0.15 ± 0.09^Δ
  Swelling degree 6 h after modelling: 0.19 ± 0.11
  Swelling degree 8 h after modelling: 0.28 ± 0.11
  Swelling degree 12 h after modelling: 0.33 ± 0.16
  Swelling degree 24 h after modelling: 0.35 ± 0.23
[2]; B4 intramuscular injection group, 2-4 h after modelling
  swelling degree of the joints compared with the model group: significantly reduced
[2]; [7]
  Swelling degree 2 h after modelling: 0.12 ± 0.07^Δ
  Swelling degree 4 h after modelling: 0.11 ± 0.11^Δ
  Swelling degree 6 h after modelling: 0.20 ± 0.11
  Swelling degree 8 h after modelling: 0.32 ± 0.18
  Swelling degree 12 h after modelling: 0.38 ± 0.23
  Swelling degree 24 h after modelling: 0.55 ± 0.35
[2]; [8]
  Swelling degree 4 h after modelling: 0.08 ± 0.18^Δ
  Swelling degree 6 h after modelling: 0.13 ± 0.14^Δ
  Swelling degree 8 h after modelling: 0.23 ± 0.21
  Swelling degree 12 h after modelling: 0.22 ± 0.19
  Swelling degree 24 h after modelling: 0.28 ± 0.21
[2]; B4 intravenous injection group, 5 mg/kg * 2, 3 days, right ankle joint volume after minus before modelling
  Swelling degree 2 h after modelling: 0.17 ± 0.14
[2]; B4 intravenous injection group, 4-6 h after modelling
  swelling degree of the joints compared with the model group: significantly reduced
[2]; [9]
  Swelling degree 2 h after modelling: 0.10 ± 0.08^Δ
  Swelling degree 4 h after modelling: 0.07 ± 0.08^ΔΔ
  Swelling degree 6 h after modelling: 0.13 ± 0.09^Δ
  Swelling degree 8 h after modelling: 0.21 ± 0.13
  Swelling degree 12 h after modelling: 0.27 ± 0.15
  Swelling degree 24 h after modelling: 0.28 ± 0.16
[2]; B4 subcutaneous injection group, 2-6 h after modelling
  swelling degree of the joints compared with the model group: significantly reduced
[2]; administration routes and dosages of Example 1
  effect on reducing the acute joint swelling caused by sodium urate (MSU) crystals, compared with colchicine: equivalent to that of colchicine
[2]; subcutaneous, intramuscular and intravenous injection
  joint swelling of acute gouty arthritis (conclusion): significantly alleviate

## COc1cc2c(c(OC)c1OC)-c1ccc(OC)c(=O)cc1[C@@H](NC(C)=O)CC2 [Colchicine, colchicine, reference compound]
[1]; Colchicine group, 0.15 mg/kg
  Swelling degree 4 h after modelling: 0.082 ± 0.11
  Swelling degree 6 h after modelling: 0.056 ± 0.11^Δ
  Swelling degree 8 h after modelling: 0.135 ± 0.13^Δ
  Swelling degree 12 h after modelling: 0.128 ± 0.13^Δ
[1]; Colchicine group, 0.15 mg/kg, once on the day of model building
  Swelling degree 2 h after modelling: 0.155 ± 0.07
[1]; colchicine group, 6-12 h after modelling
  swelling degree of the joint compared with the model group: obviously reduced and significantly different
[2]; Colchicine group, 0.3 mg/kg
  Swelling degree 4 h after modelling: 0.13 ± 0.11^Δ
  Swelling degree 6 h after modelling: 0.19 ± 0.14
  Swelling degree 8 h after modelling: 0.25 ± 0.20
  Swelling degree 12 h after modelling: 0.35 ± 0.23
  Swelling degree 24 h after modelling: 0.33 ± 0.11
[2]; Colchicine group, 0.3 mg/kg, once on the day of modeling
  Swelling degree 2 h after modelling: 0.14 ± 0.08
[2]; colchicine group, 4 h after modelling
  swelling degree of the joints compared with the model group: significantly reduced

From patent US12257260B2, “Pharmaceutical use of anemoside B4 against acute gouty arthritis” (priority 2018, dated 2025)
